As a reminder, the inhibition is the percentage by which the read-out fell short of the control.

What all share (assay type): cell-based
In test [1] the target is T1, OR2W1 (Homo sapiens, UniProt Q9Y3N9).
T1 construct: expressed in transfected cells; host or cells: HEK293
T1 sequence (Q9Y3N9 1-320): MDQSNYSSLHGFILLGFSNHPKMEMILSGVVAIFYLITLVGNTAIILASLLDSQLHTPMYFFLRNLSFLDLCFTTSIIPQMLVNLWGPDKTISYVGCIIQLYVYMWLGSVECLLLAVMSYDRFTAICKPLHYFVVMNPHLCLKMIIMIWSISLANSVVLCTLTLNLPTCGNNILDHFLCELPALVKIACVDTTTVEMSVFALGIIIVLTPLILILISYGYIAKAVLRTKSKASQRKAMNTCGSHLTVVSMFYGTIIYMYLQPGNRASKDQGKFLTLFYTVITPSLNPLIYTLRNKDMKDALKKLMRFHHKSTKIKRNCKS
Nature of the test: Luciferase reporter assay: odorant response of OR2W1 expressed in HEK293 cells. Conditions: 0, 3, 10, 30, 100, 300, and 1000 μM odorant, OR2W1, FIG. 2/3. As to the method:
(§1) Each of the 369 types of human olfactory receptors was expressed in HEK293 cells. A reaction solution having a composition shown in Table 1 was prepared on a clean bench, and left to stand for 15 minutes. The solution was dispensed to each well of a 96-well plate (BD). Subsequently, HEK293 cells (100 μL, 3×10^5 cells/cm^2) were seeded in each well and cultured for 24 hours in an incubator at 37° C. and under 5% CO2 conditions.
(§2) The olfactory receptor expressed in HEK293 cells activates adenylate cyclase with the aid of Gαs present in cells, to thereby increase intracellular cAMP level. In this study, odorant response was measured by a luciferase reporter gene assay which monitored the intracellular cAMP level as the luminescence value derived from a firefly luciferase gene (fluc2P-CRE-hygro). Also, a Renilla luciferase gene fused downstream of a CMV promoter (hRluc-CMV) was also transfected to HEK293 cells as an internal standard to correct errors in gene transfer efficiency and number of cells.
(§3) The culture medium was removed from the culture plate produced in (3) above, and a solution (75 μL) containing an odorant substance (1 mM skatole) in CD293 medium (Invitrogen) was added to each well. […] Luciferase activity was measured by means of a Dual-Glo™ luciferase assay system (promega) according to an instruction manual thereof. The luminescence value derived from firefly luciferase induced by odorant stimulation was divided by the luminescence value of cells which were not stimulated with odorants. […]
(§4) In a manner similar to that employed in Example 1, each of olfactory receptor OR2W1 (SEQ ID NO: 2), OR5K1 (SEQ ID NO: 4), OR5P3 (SEQ ID NO: 6), and OR8H1 (SEQ ID NO: 8) was expressed with RTP1S mutant (SEQ ID NO: 12) in HEK293 cells. The response of each receptor to skatole (0, 3, 10, 30, 100, 300, and 1000 μM) was determined.
(§5) In a manner similar to that employed in Example 2, the response of each olfactory receptor to skatole and indole (each 0, 3, 10, 30, 100, 300, and 1000 μM) was determined.
In general terms: A reporter such as luciferase makes a cellular process visible.

Test [2] has as its target T2, OR5K1 (Homo sapiens, UniProt Q8NHB7).
T2 construct: expressed in transfected cells; host or cells: HEK293
T2 sequence (Q8NHB7 1-308): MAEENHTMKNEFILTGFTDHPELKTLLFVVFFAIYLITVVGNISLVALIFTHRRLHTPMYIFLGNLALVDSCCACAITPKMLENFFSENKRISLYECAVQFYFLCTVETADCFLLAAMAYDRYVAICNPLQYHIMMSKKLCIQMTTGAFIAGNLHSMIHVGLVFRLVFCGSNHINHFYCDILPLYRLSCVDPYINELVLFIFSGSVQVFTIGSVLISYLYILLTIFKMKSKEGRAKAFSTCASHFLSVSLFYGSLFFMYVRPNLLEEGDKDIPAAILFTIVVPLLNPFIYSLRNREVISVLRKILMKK
Nature of the test: Luciferase reporter assay: odorant response of OR5K1 expressed in HEK293 cells. The conditions noted are these: 0, 3, 10, 30, 100, 300, and 1000 μM odorant, OR5K1, FIG. 2/3. As to the method:
as §1, §2, §3, §4, §5

Test [3] addresses T3, OR5P3 (Homo sapiens, UniProt Q8WZ94).
T3 construct: expressed in transfected cells; host or cells: HEK293
T3 sequence (Q8WZ94 1-311): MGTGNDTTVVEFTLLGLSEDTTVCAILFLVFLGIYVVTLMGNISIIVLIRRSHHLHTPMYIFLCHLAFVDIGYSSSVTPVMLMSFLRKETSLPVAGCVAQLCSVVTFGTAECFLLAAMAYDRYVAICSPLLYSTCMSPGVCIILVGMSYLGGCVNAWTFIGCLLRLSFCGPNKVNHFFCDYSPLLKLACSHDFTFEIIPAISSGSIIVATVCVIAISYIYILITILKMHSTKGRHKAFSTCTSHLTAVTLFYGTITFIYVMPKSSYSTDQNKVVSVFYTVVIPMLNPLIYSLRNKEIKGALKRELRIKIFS
The test can be described thus: Luciferase reporter assay: odorant response of OR5P3 expressed in HEK293 cells. Conditions: 0, 3, 10, 30, 100, 300, and 1000 μM odorant, OR5P3, FIG. 2/3. Here is the method: as §1, §2, §3, §4, §5

The target in test [4] is T4, OR8H1 (Homo sapiens, UniProt Q8NGG4).
T4 construct: expressed in transfected cells; host or cells: HEK293
T4 sequence (Q8NGG4 1-311): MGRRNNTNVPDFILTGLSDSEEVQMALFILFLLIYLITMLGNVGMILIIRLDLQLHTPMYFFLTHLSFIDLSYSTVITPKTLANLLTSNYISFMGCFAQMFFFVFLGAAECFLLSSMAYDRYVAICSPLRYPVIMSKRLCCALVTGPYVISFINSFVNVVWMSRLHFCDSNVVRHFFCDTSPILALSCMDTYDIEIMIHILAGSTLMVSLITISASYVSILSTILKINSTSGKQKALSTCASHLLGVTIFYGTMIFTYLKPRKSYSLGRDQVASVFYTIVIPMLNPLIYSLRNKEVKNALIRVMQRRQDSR
Nature of the test: Luciferase reporter assay: odorant response of OR8H1 expressed in HEK293 cells. Conditions: 0, 3, 10, 30, 100, 300, and 1000 μM odorant, OR8H1, FIG. 2/3. Here is the method:
as §1, §2, §3, §4, §5

Test [5] addresses T1, OR2W1. Nature of the test: Luciferase reporter assay: suppression of the skatole response of OR2W1 expressed in HEK293 cells. The conditions noted are these: test substance 100 μM mixed with 300 μM skatole, HEK293 cells expressing OR2W1; for inhibition at 100 µM: 4 h, read-out: Inhibition rate 2W1. As to the method:
(§6) A reaction solution having a composition shown in Table 1 was prepared on a clean bench, and left to stand for 15 minutes. The solution was dispensed to each well of a 96-well plate (BD). Subsequently, HEK293 cells (100 μL, 3×10^5 cells/cm^2) were seeded in each well and cultured for 24 hours in an incubator at 37° C. and under 5% CO2 conditions.
as §2
(§7) Cell culturing was performed for four hours in a CO2-incubator, whereby the luciferase gene sufficiently expressed in the cells. Luciferase activity was measured by means of a Dual-Glo™ luciferase assay system (promega) according to an instruction manual thereof. The luminescence value derived from firefly luciferase induced by odorant stimulation was divided by the luminescence value of cells which were not stimulated with odorants. The thus-obtained—called “fold increase”—was employed as an index for response intensity.
(§8) The response inhibition rate of a test substance was calculated as follows. Firstly, luminescence value derived from firefly luciferase induced by stimulation with skatole (X), and luminescence value in cells which expressed the same receptor but were not stimulated with skatole (Y) were determined. By subtracting Y from X, the receptor activity by stimulation with skatole alone (X−Y) was determined. Similarly, the luminescence value induced by stimulation with a mixture of skatole and a test substance (Z) was determined. Through subtracting Y (the luminescence value in cells which expressed the same receptor but were not stimulated with skatole) from Z, the receptor activity (Z−Y) by stimulation with a mixture of skatole and the test substance was obtained. From the thus-obtained receptor activity by stimulation with skatole alone (X−Y) and the receptor activity in the presence of a test material (Z−Y), the response inhibition rate of the test substance was calculated by the following equation: Inhibition rate (%)={1−(Z−Y)/(X−Y)}×100.
(§9) In each case, multiple independent experiments were performed in duplicate, and the average of each experiment was used.

The target of test [6] is T2, OR5K1. The test can be described thus: Luciferase reporter assay: suppression of the skatole response of OR5K1 expressed in HEK293 cells. Conditions: test substance 100 μM mixed with 300 μM skatole, HEK293 cells expressing OR5K1; for inhibition at 100 µM: 4 h, read-out: Inhibition rate 5K1. Here is the method: as §6, §2, §7, §8, §9
For test [7], the target named is T3, OR5P3. The test can be described thus: Luciferase reporter assay: suppression of the skatole response of OR5P3 expressed in HEK293 cells. The conditions noted are these: test substance 100 μM mixed with 300 μM skatole, HEK293 cells expressing OR5P3. Here is the method: as §6, §2, §7, §8, §9
Test [8] deals with T4, OR8H1. Nature of the test: Luciferase reporter assay: suppression of the skatole response of OR8H1 expressed in HEK293 cells. Conditions: test substance 100 μM mixed with 300 μM skatole, HEK293 cells expressing OR8H1; for inhibition at 100 µM: 4 h, read-out: Inhibition rate 8H1. Here is the method: as §6, §2, §7, §8, §9

Consider `c1ccc2[nH]ccc2c1` [indole], for which the “response of olfactory receptor at different concentration” value in test [1], in test [2], in test [3] and in test [4] was “exhibited a response” throughout.

For `CC(C=O)Cc1ccc(C(C)(C)C)cc1` (stereo not drawn) [lilial, p-tert-Butyl-α-methyl hydrocinnamic aldehyde], in test [5], the “Inhibition rate 2W1” value is “C (C >20%)”. Besides, in test [6], the “Inhibition rate 5K1” value was “C (C >20%)”. The “Inhibition rate 5P3” value in test [7] is on record as “C (C >20%)”. The “Inhibition rate 8H1” value in test [8] is “C (C >20%)”.

Turning to `COC(C)(C)CCCC(C)CC=O` (stereo not drawn) [methoxycitronellal, 7-Methoxy-3,7-dimethyl-octanal], the figures for the inhibition at 100 µM in test [5], in test [6] and in test [8] were 20 to 50%, 50 to 80% and 20 to 50%, respectively. Besides, the “Inhibition rate 5P3” value in test [7] was “C (C >20%)”.

With `C=CC(C)(O)CCC=C(C)CCC=C(C)C` (stereo not drawn) [nerolidol, 3,7,11-Trimethyl-1,6,10-dodecatrien-3-ol], the inhibition at 100 µM in test [5] is greater than 80%; in test [6], less than 20%; in test [8], less than 20%. Further, in test [7], the “Inhibition rate 5P3” value was “A (A >80%)”.

For the compound `CC(C)(C)C1CCC(O)CC1` (stereo not drawn) [p-tert-butlcyclohexanol, 4-(1,1-Dimethylethyl)-cyclohexanol], the inhibition at 100 µM in test [5] is less than 20%; in test [6], greater than 80%; in test [8], greater than 80%. Besides, the “Inhibition rate 5P3” value in test [7] was “A (A >80%)”.

Take `O=C1CCCCCCCCCCCCCCO1` [pentalide, Oxacyclohexadecan-2-one]: the values for the inhibition at 100 µM in test [5], in test [6] and in test [8] were 50 to 80%, 50 to 80% and greater than 80%, respectively. In test [7], the “Inhibition rate 5P3” value was “B (B >50%)”.

Consider `CC(CCO)CCc1ccccc1` (stereo not drawn) [phenylhexanol, 3-Methyl-5-phenyl-1-pentanol], for which the inhibition at 100 µM in test [5], in test [6] and in test [8] was less than 20% throughout. Moreover, in test [7], the “Inhibition rate 5P3” value is on record as “A (A >80%)”.

In the case of `CC(C)CCCC(C)CCO` (stereo not drawn) [tetrahydrogenol, 3,7-Dimethyl-1-octanol], the inhibition at 100 µM is 20 to 50% in test [5], 50 to 80% in test [6] and greater than 80% in test [8]. The “Inhibition rate 5P3” value in test [7] was “B (B >50%)”.

Take `Cc1ccc(C(C)C)c(O)c1` [thymol, 5-Methyl-2-(1-methylethyl)-phenol]: the results for the inhibition at 100 µM in test [5], in test [6] and in test [8] were 20 to 50%, greater than 80% and 20 to 50%, respectively. In addition, the “Inhibition rate 5P3” value in test [7] is “A (A >80%)”.

In the case of `C=C1CCCC(C)(C)C1C=CC(=O)CC` (stereo not drawn) [γ-methylionone, 1-(2,2-Dimethyl-6-methylencyclohexyl)-1-penten-3-one], the inhibition at 100 µM in test [5], in test [6] and in test [8] was 50 to 80% each time. Further, in test [7], the “Inhibition rate 5P3” value is “C (C >20%)”.

As to `CCCCCCCC1CCC(=O)O1` (stereo not drawn) [γ-undecalactone, 5-Heptyl dihydro-2(3H)-furanone], the inhibition at 100 µM in test [5], in test [6] and in test [8] was 50 to 80% each time. Moreover, in test [7], the “Inhibition rate 5P3” value is on record as “B (B >50%)”.

As to `CC=CC(=O)C1C(C)C=CCC1(C)C` (stereo not drawn) [δ-damascones, 1-(2,6,6-Trimethyl-3-cyclohexenyl)-2-buten-1-one], the inhibition at 100 µM in test [5], in test [6] and in test [8] was 20 to 50% throughout. Moreover, the “Inhibition rate 5P3” value in test [7] is reported as “C (C >20%)”.
